Experimental findings from patent US8921546B2, “Imidazolothiazole compounds for the treatment of disease” (Ambit Biosciences Corporation, priority 2006, dated 2014) are described below.

One assay addresses T1, KIT (Homo sapiens, UniProt P10721).
T1 construct: made in house
In words: Binding constant (Kd) measurement, phage-displayed kinase competition binding assay, KIT. As to the method: (§1) Binding Constant (Kd) Measurements for Small-Molecule-Kinase Interactions
(§2) By testing across a large class of protein kinases, specificity of the kinase inhibitors provided herein is also determined. The components of the assays include various human kinases expressed as fusions to T7 bacteriophage particles and immobilized ligands that bind to the ATP site of the kinases. […] If the test compound binds the kinase, it competes with the immobilized ligand and prevents binding to the solid support. […] The results are read out by quantitating the amount of fusion protein bound to the solid support, which is accomplished by either traditional phage plaque assays or by quantitative PCR (qPCR) using the phage genome as a template.

Another assay has as its target T2, FLT3 (Homo sapiens, UniProt P36888).
T2 construct: made in house
T2 sequence (P36888 27-993): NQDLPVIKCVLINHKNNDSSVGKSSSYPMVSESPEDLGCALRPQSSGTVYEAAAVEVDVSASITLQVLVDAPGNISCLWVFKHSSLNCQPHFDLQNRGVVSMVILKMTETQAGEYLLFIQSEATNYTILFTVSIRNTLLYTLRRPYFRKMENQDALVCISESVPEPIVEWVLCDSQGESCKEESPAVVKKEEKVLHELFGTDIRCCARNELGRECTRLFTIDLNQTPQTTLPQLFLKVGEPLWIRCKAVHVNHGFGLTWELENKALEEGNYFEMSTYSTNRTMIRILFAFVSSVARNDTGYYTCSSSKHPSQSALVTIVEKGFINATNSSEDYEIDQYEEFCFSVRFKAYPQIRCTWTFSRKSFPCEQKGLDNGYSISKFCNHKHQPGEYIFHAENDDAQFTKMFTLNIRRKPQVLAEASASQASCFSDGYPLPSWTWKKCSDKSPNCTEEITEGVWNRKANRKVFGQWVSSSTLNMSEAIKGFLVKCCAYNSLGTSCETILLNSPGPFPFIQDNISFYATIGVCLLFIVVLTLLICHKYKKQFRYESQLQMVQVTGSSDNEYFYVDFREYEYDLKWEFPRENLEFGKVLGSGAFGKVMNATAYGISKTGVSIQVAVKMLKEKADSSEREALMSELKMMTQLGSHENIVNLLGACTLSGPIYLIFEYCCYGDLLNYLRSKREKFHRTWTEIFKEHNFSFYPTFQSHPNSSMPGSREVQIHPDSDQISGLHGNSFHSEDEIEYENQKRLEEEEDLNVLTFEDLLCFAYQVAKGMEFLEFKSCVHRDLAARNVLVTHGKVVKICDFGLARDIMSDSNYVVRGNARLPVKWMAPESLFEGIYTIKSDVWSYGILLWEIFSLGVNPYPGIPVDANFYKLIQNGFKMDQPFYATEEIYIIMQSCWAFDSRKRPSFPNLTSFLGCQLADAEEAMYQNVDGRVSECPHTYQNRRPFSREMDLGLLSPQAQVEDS
In words: Binding constant (Kd) measurement, phage-displayed kinase competition binding assay, FLT3. As for the experimental part: as §1, §2

Another assay deals with T3, CSF1R (Homo sapiens, UniProt P07333).
T3 construct: made in house
In words: Binding constant (Kd) measurement, phage-displayed kinase competition binding assay, CSF1R. As to the method: as §1, §2

For a further assay, the system named is MV4-11 cells. Description: Cellular proliferation assay (MTS), MV4-11. Format: cell-based. To be noted: Homo sapiens. An excerpt: Cellular Proliferation Assay
Cancer cell viability and proliferation can be evaluated using a tetrazolium salt reduction cell-based assay. In viable cells, this colorimetric assay can measure mitochondrial reduction of a tetrazolium component (MTS) into an […] formazan product.
This cell line was used to determine the ability of the compounds provided herein to inhibit Flt3 in intact cells. The RS4-11 cell line, which expresses the wild-type (WT) receptor, is also used as a control to verify the test compound's ability to inhibit the FLT3 receptor containing the ITD mutation.
MV4-11 cells were plated at 10,000 cells per well in DMEM medium with 0.5% serum. RS4-11 cells were plated at 20,000 cells per well in RPMI with 0.5% serum. […] An aliquot from each well of the compound plate was transferred to the plated cells and then incubated @ 37° C. in 5% CO2 (for 3 days for the MV4-11 cells, 2 days for the RS4-11 cells).
MTS tetrazolium compound (Owen's reagent) was thawed in a H2O bath. 20 μl of MTS tetrazolium was added to each well of optical plate and the cells were incubated @ 37° C. in 5% CO2 for 2 hours.

[1] abbreviates: read-out: Binding Assay FLT3 Kd.
[2] abbreviates: MV4-11 cells, 72 hour incubation, MTS, read-out: Cellular Assay MV-proliferation IC50.

Structures can show the parent of a compound that is named as a salt. Where two headings read alike, the source gives them in different places.

Usually Kd stands for the constant that tells how readily two partners part at equilibrium.

T1 sequence (P10721 26-976): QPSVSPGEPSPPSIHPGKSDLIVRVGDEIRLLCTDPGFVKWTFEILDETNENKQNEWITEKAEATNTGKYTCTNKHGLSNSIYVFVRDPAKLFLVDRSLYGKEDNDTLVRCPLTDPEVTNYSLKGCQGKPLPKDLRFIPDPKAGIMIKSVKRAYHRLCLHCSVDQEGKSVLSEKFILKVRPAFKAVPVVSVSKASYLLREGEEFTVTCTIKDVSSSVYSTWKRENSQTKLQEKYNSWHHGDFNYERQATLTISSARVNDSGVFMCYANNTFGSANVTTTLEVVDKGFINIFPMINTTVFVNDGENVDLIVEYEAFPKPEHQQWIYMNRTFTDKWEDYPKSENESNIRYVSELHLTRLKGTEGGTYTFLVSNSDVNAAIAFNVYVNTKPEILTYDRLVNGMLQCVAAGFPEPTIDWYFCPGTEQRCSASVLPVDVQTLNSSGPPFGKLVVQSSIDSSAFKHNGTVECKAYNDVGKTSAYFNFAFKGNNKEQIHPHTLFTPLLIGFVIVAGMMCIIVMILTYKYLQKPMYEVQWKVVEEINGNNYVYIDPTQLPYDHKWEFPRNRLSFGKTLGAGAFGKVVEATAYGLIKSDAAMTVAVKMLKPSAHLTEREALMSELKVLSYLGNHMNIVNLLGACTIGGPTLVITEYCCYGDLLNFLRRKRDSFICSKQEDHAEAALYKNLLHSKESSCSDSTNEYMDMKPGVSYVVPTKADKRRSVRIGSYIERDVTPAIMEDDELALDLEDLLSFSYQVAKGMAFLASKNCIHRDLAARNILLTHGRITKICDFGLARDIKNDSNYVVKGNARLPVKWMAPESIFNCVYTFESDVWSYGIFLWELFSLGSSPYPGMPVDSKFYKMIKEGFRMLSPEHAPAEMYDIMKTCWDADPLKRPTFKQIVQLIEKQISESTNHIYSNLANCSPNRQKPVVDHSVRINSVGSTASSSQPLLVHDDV
T3 sequence (P07333 20-972): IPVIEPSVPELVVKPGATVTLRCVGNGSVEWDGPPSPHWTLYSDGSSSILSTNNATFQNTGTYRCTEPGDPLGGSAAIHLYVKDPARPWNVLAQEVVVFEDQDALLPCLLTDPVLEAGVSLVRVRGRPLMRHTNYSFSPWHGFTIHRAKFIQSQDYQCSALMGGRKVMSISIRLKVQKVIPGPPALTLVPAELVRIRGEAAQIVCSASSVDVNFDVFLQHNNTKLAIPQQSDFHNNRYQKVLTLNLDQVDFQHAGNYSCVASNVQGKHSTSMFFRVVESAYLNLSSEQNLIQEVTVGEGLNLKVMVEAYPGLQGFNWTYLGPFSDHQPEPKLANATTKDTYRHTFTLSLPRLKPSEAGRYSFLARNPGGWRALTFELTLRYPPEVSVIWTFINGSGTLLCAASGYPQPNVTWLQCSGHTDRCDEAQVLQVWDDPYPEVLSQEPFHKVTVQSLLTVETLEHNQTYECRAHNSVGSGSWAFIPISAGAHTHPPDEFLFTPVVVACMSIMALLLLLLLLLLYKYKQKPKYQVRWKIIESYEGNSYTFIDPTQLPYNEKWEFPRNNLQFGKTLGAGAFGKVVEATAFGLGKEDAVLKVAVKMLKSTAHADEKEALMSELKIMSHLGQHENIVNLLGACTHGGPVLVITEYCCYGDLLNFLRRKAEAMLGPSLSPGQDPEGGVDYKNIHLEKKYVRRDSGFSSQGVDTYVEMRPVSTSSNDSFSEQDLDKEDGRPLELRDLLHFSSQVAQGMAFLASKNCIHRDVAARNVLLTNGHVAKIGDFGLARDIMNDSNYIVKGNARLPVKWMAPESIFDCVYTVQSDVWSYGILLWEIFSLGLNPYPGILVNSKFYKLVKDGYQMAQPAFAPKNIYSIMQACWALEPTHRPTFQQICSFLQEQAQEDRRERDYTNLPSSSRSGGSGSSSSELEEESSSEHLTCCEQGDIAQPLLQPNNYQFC

Take `Cc1nc(-c2ccc(Cl)cc2)sc1C(=O)Nc1ccc(-c2cn3c(n2)sc2cc(OCCN4CCOCC4)ccc23)cc1` [Compound E4, 2-(4-chloro-phenyl)-4-methyl-thiazole-5-carboxylic acid {4-[7-(2-morpholin-4-yl-ethoxy)-benzo[d]imidazo[2,1-b]thiazol-2-yl]-phenyl}-amide]: the values for the Kd on KIT, at FLT3 (setting [1]) and at CSF1R were 100 to 1000 nM, 10 to 100 nM and 100 to 1000 nM, respectively. The IC50 in the assay with MV4-11 cells (setting [2]) is 10 to 100 nM.

With `CC(C)(C)c1cc(NC(=O)Nc2ccc(-c3cn4c(n3)sc3cc(CCC(=O)NCCN5CCCCC5)ccc34)cc2)no1` [Compound C10, 3-(2-{4-[3-(5-tert-butyl-isoxazol-3-yl)-ureido]-phenyl}-benzo[d]imidazo[2,1-b]thiazol-7-yl)-N-(2-piperidin-1-yl-ethyl)-propionamide hydrochloride], the Kd at KIT is less than 10 nM; at FLT3 (setting [1]), less than 10 nM; at CSF1R, 10 to 100 nM. The IC50 in the assay on MV4-11 cells (setting [2]) is less than 10 nM.

Regarding `O=C(Nc1ccc(-c2cn3c(n2)sc2cc(OCCN4CCOCC4)ccc23)cc1)Nc1ccc2c(c1)OCCO2` [Compound F1, 1-(2,3-Dihydro-benzo[1,4]dioxin-6-yl)-3-{4-[7-(2-morpholin-4-yl-ethoxy)-benzo[d]imidazo[2,1-b]thiazol-2-yl]-phenyl}-urea], the Kd is less than 10 nM on KIT, less than 10 nM on FLT3 (setting [1]) and 100 to 1000 nM on CSF1R. Also, the IC50 in the assay with MV4-11 cells (setting [2]) was less than 10 nM.

`CC(C)(C)c1cc(NC(=O)Nc2ccc(-c3cn4c(n3)sc3cc(CCN5CCCCC5)ccc34)cc2)no1` [Compound D6, 1-(5-tert-Butyl-isoxazol-3-yl)-3-{4-[7-(2-piperidin-1-yl-ethyl)-imidazo[2,1-b][1,3]benzothiazol-2-yl]-phenyl}urea hydrochloride]: the Kd at KIT, at FLT3 and on CSF1R was less than 10 nM throughout. Further, the IC50 in the assay on MV4-11 cells (setting [2]) was less than 10 nM.

Take `CC(C)(C)c1cc(NC(=O)Nc2ccc(-c3cn4c(n3)sc3cccc(OCCN5CCOCC5)c34)cc2)no1` [Compound B11, N-(5-tert-butyl-isoxazol-3-yl)-N′-{4-[5-(2-morpholin-4-yl-ethoxy)imidazo[2,1-b][1,3]benzothiazol-2-yl]phenyl}urea hydrochloride]: the Kd is 10 to 100 nM at KIT, less than 10 nM at FLT3 (setting [1]) and 100 to 1000 nM on CSF1R. Besides, the IC50 in the assay with MV4-11 cells (setting [2]) was less than 10 nM.

Consider `O=C(CCc1ccc2c(c1)sc1nc(-c3ccc(NC(=O)N4CCOCC4)cc3)cn12)N1CCOCC1` [Compound E1, Morpholine-4-carboxylic acid {4-[7-(3-morpholin-4-yl-3-oxo-propyl)-benzo[d]imidazo[21-b]thiazol-2-yl]-phenyl}amide], for which the Kd is more than 1000 nM at KIT, 100 to 1000 nM on FLT3 (setting [1]) and more than 1000 nM on CSF1R. In addition, the IC50 with MV4-11 cells (setting [2]) is more than 100 nM.

Consider `Cc1nc2cc(NC(=O)Nc3ccc(-c4cn5c(n4)sc4cc(OCCN6CCOCC6)ccc45)cc3)ccc2s1` [Compound F8, 1-(2-methyl-benzothiazol-5-yl)-3-{4-[7-(2-morpholin-4-yl-ethoxy)-benzo[d]imidazo[2,1-b]thiazol-2-yl]-phenyl}-urea], for which the Kd is 10 to 100 nM at KIT, less than 10 nM on FLT3 (setting [1]) and 100 to 1000 nM on CSF1R. For the same compound, the IC50 in the assay with MV4-11 cells (setting [2]) is less than 10 nM.

In the case of `CC(C)(C)c1cc(NC(=O)Nc2ccc(-c3cn4c(n3)sc3cc(CCN5CCOCC5)ccc34)cc2)no1` [Compound D5, 1-(5-tert-Butyl-isoxazol-3-yl)-3-{4-[7-(2-morpholin-4-yl-ethyl)-imidazo[2,1-b][1,3]benzothiazol-2-yl]-phenyl}-urea hydrochloride], the Kd at KIT, on FLT3 and at CSF1R was less than 10 nM throughout. Further, the IC50 in the assay with MV4-11 cells (setting [2]) is less than 10 nM.

With `O=C(Cc1noc2ccccc12)Nc1ccc(-c2cn3c(n2)sc2cc(OCCN4CCOCC4)ccc23)cc1` [Compound E2, 2-benzo[d]isoxazol-3-yl-N-{4-[7-(2-morpholin-4-yl-ethoxy)-benzo[d]imidazo[2,1-b]thiazol-2-yl]-phenyl}-acetamide], the figures for the Kd at KIT, at FLT3 (setting [1]) and at CSF1R were 10 to 100 nM, less than 10 nM and more than 1000 nM, respectively. Further, in the assay with MV4-11 cells (setting [2]), the IC50 was less than 10 nM.

`CCOC(=O)c1ccc2c(c1)sc1nc(-c3cccc(NC(=O)Nc4cc(C(C)(C)C)on4)c3)cn12` [Compound B14, 2-{3-[3-(5-tert-Butyl-isoxazol-3-yl)-ureido]-phenyl}-imidazo[2,1-b][1,3]benzothiazole-7-carboxylic acid ethyl ester]: the Kd at KIT, at FLT3 (setting [1]) and on CSF1R was more than 1000 nM in each case. Moreover, in the assay on MV4-11 cells (setting [2]), the IC50 is more than 100 nM.

With `CC(C)(C)c1cc(NC(=O)Nc2ccc(-c3cn4c(n3)sc3cc(CC(=O)NCCN5CCCCC5)ccc34)cc2)no1` [Compound C14, 2-(2-{4-[3-(5-tert-butyl-isoxazol-3-yl)-ureido]-phenyl}-benzo[d]imidazo[2,1-b]thiazol-7-yl)-N-(2-piperidin-1-yl-ethyl)-acetamide hydrochloride], the Kd at KIT was less than 10 nM; at FLT3 it was less than 10 nM; on CSF1R, 10 to 100 nM. In addition, the IC50 in the assay with MV4-11 cells (setting [2]) was less than 10 nM.

Consider `CC(C)(C)c1cc(NC(=O)Nc2cccc(-c3cn4c(n3)sc3cc(OCCN5CCOCC5)ccc34)c2)no1` [Compound B13, N-(5-tert-butyl-isoxazol-3-yl)-N′-{3-[7-(2-morpholin-4-yl-ethoxy)imidazo[2,1-b][1,3]benzothiazol-2-yl]phenyl}urea], for which the values for the Kd on KIT, on FLT3 (setting [1]) and at CSF1R were more than 1000 nM, 100 to 1000 nM and more than 1000 nM, respectively. In addition, the IC50 in the assay with MV4-11 cells (setting [2]) is more than 100 nM.

In the case of `CC(C)(C)c1cc(NC(=O)Nc2ccc(-c3cn4c(n3)sc3cc(CC(=O)NCCN5CCOCC5)ccc34)cc2)no1` [Compound C13, 2-(2-{4-[3-(5-tert-butyl-isoxazol-3-yl)-ureido]-phenyl}-benzo[d]imidazo[2,1-b]thiazol-7-yl)-N-(2-morpholin-4-yl-ethyl)-acetamide hydrochloride], the Kd at KIT is less than 10 nM; at FLT3 it was less than 10 nM; at CSF1R, 10 to 100 nM. Moreover, the IC50 in the assay with MV4-11 cells (setting [2]) is less than 10 nM.

Consider `O=C(Nc1ccc(-c2cn3c(n2)sc2cc(OCCN4CCOCC4)ccc23)cc1)Nc1ccc2c(c1)OCO2` [Compound F3], for which the figures for the Kd on KIT, at FLT3 (setting [1]) and at CSF1R were less than 10 nM, less than 10 nM and more than 1000 nM, respectively.

For `CCN1CCN(C(=O)Cc2ccc3c(c2)sc2nc(-c4ccc(NC(=O)Nc5cc(C(C)(C)C)on5)cc4)cn23)CC1` [Compound C17, 1-(5-tert-butyl-isoxazol-3-yl)-3-(4-{7-[2-(4-ethyl-piperazin-1-yl)-2-oxo-ethyl]benzo[d]imidazo[2,1-b]thiazol-2-yl}-phenyl)-urea hydrochloride], the Kd at KIT is less than 10 nM; at CSF1R, 10 to 100 nM. Moreover, the IC50 in the assay with MV4-11 cells (MV4-11, 72 h, read-out: Cellular Assay MV-proliferation IC50 (nM)) is less than 10 nM.

In the case of `CCN(CC)CCNC(=O)Cc1ccc2c(c1)sc1nc(-c3ccc(NC(=O)Nc4cc(C(C)(C)C)on4)cc3)cn12` [Compound C16, 2-(2-{4-[3-(5-tert-butyl-isoxazol-3-yl)-ureido]-phenyl}-benzo[d]imidazo[2,1-b]thiazol-7-yl)-N-(2-diethylamino-ethyl)-acetamide hydrochloride], the Kd at KIT was less than 10 nM; on CSF1R, 10 to 100 nM. Also, in the assay with MV4-11 cells (setting [2]), the IC50 was less than 10 nM.
